Drawing on ChEMBL document CHEMBL1153884, “Oligonucleotide-polyamine conjugates: influence of length and position of 2'-attached polyamines on duplex stability and antisense effect” (2009), this text covers Tm and Activity for 6 molecules.

Structures are written as SMILES.

Assay [1] concerns Nucleic Acid. The assay can be described thus: Duplex stability of DNA counter strand assessed as melting temperature. Format: nucleic-acid assay.
A short description of assay [2]: Antisense effect in human 607B cells assessed as down-regulation of bcl2 expression at 100 nM after 48 hrs by Western blot analysis relative to control. The assay is classed as functional. A general note: A western blot detects proteins with antibodies after separation by electrophoresis.
Assay [3] concerns Nucleic Acid. Kind of assay: Duplex stability of RNA counter strand assessed as melting temperature. Format: nucleic-acid assay.

Consider `Cc1cn([C@H]2C[C@H](OP(O)(=S)OC[C@H]3O[C@@H](n4ccc(N)nc4=O)[C@H](O)[C@@H]3OP(O)(=S)OC[C@H]3O[C@@H](n4cc(C)c(=O)[nH]c4=O)C[C@@H]3O)[C@@H](COP(O)(=S)O[C@H]3[C@@H](O)[C@H](n4ccc(N)nc4=O)O[C@@H]3COP(O)(=S)O[C@H]3[C@@H](O)[C@H](n4ccc(N)nc4=O)O[C@@H]3COP(O)(=S)O[C@H]3[C@@H](O)[C@H](n4ccc(N)nc4=O)O[C@@H]3COP(O)(=S)O[C@H]3[C@@H](O)[C@H](n4cnc5c(N)ncnc54)O[C@@H]3COP(O)(=S)O[C@H]3[C@@H](O)[C@H](n4cnc5c(=O)[nH]c(N)nc54)O[C@@H]3COP(O)(=S)O[C@H]3[C@@H](O)[C@H](n4ccc(N)nc4=O)O[C@@H]3COP(O)(=S)O[C@H]3[C@@H](O)[C@H](n4cnc5c(=O)[nH]c(N)nc54)O[C@@H]3COP(O)(=S)O[C@H]3C[C@H](n4cc(C)c(=O)[nH]c4=O)O[C@@H]3COP(O)(=S)O[C@H]3[C@@H](O)[C@H](n4cnc5c(=O)[nH]c(N)nc54)O[C@@H]3COP(O)(=S)O[C@H]3[C@@H](O)[C@H](n4ccc(N)nc4=O)O[C@@H]3COP(O)(=S)O[C@H]3[C@@H](O)[C@H](n4cnc5c(=O)[nH]c(N)nc54)O[C@@H]3COP(O)(=S)O[C@H]3[C@@H](O)[C@H](n4ccc(N)nc4=O)O[C@@H]3COP(O)(=S)O[C@H]3[C@@H](O)[C@H](n4ccc(N)nc4=O)O[C@@H]3COP(O)(=S)O[C@H]3[C@@H](O)[C@H](n4cnc5c(N)ncnc54)O[C@@H]3COP(O)(=S)O[C@H]3[C@@H](NCCCCNCCN)[C@H](n4ccc(=O)[nH]c4=O)O[C@@H]3CO)O2)c(=O)[nH]c1=O` (some centres not stated), for which the Tm in assay [1] was 65.1 °C; in assay [3], 51.4 °C. Further, the Activity in assay [2] was found to be 57.6%.
For `Cc1cn([C@H]2C[C@H](OP(O)(=S)OC[C@H]3O[C@@H](n4ccc(N)nc4=O)[C@H](O)[C@@H]3OP(O)(=S)OC[C@H]3O[C@@H](n4cc(C)c(=O)[nH]c4=O)C[C@@H]3O)[C@@H](COP(O)(=S)O[C@H]3[C@@H](O)[C@H](n4ccc(N)nc4=O)O[C@@H]3COP(O)(=S)O[C@H]3[C@@H](O)[C@H](n4ccc(N)nc4=O)O[C@@H]3COP(O)(=S)O[C@H]3[C@@H](O)[C@H](n4ccc(N)nc4=O)O[C@@H]3COP(O)(=S)O[C@H]3[C@@H](O)[C@H](n4cnc5c(N)ncnc54)O[C@@H]3COP(O)(=S)O[C@H]3[C@@H](O)[C@H](n4cnc5c(=O)[nH]c(N)nc54)O[C@@H]3COP(O)(=S)O[C@H]3[C@@H](O)[C@H](n4ccc(N)nc4=O)O[C@@H]3COP(O)(=S)O[C@H]3[C@@H](O)[C@H](n4cnc5c(=O)[nH]c(N)nc54)O[C@@H]3COP(O)(=S)O[C@H]3C[C@H](n4cc(C)c(=O)[nH]c4=O)O[C@@H]3COP(O)(=S)O[C@H]3[C@@H](O)[C@H](n4cnc5c(=O)[nH]c(N)nc54)O[C@@H]3COP(O)(=S)O[C@H]3[C@@H](O)[C@H](n4ccc(N)nc4=O)O[C@@H]3COP(O)(=S)O[C@H]3[C@@H](O)[C@H](n4cnc5c(=O)[nH]c(N)nc54)O[C@@H]3COP(O)(=S)O[C@H]3[C@@H](O)[C@H](n4ccc(N)nc4=O)O[C@@H]3COP(O)(=S)O[C@H]3[C@@H](O)[C@H](n4ccc(N)nc4=O)O[C@@H]3COP(O)(=S)O[C@H]3[C@@H](O)[C@H](n4cnc5c(N)ncnc54)O[C@@H]3COP(O)(=S)O[C@H]3[C@@H](NCCCNCCCCNCCCN)[C@H](n4ccc(=O)[nH]c4=O)O[C@@H]3CO)O2)c(=O)[nH]c1=O` (some centres not stated) the same measures were 68.5 °C, 53.5 °C and 19.4%.
Turning to `Cc1cn([C@H]2C[C@H](OP(O)(=S)OC[C@H]3O[C@@H](n4ccc(N)nc4=O)[C@H](O)[C@@H]3OP(O)(=S)OC[C@H]3O[C@@H](n4cc(C)c(=O)[nH]c4=O)C[C@@H]3O)[C@@H](COP(O)(=S)O[C@H]3[C@@H](O)[C@H](n4ccc(N)nc4=O)O[C@@H]3COP(O)(=S)O[C@H]3[C@@H](O)[C@H](n4ccc(N)nc4=O)O[C@@H]3COP(O)(=S)O[C@H]3[C@@H](O)[C@H](n4ccc(N)nc4=O)O[C@@H]3COP(O)(=S)O[C@H]3[C@@H](O)[C@H](n4cnc5c(N)ncnc54)O[C@@H]3COP(O)(=S)O[C@H]3[C@@H](O)[C@H](n4cnc5c(=O)[nH]c(N)nc54)O[C@@H]3COP(O)(=S)O[C@H]3[C@@H](O)[C@H](n4ccc(N)nc4=O)O[C@@H]3COP(O)(=S)O[C@H]3[C@@H](O)[C@H](n4cnc5c(=O)[nH]c(N)nc54)O[C@@H]3COP(O)(=S)O[C@H]3C[C@H](n4cc(C)c(=O)[nH]c4=O)O[C@@H]3COP(O)(=S)O[C@H]3[C@@H](O)[C@H](n4cnc5c(=O)[nH]c(N)nc54)O[C@@H]3COP(O)(=S)O[C@H]3[C@@H](O)[C@H](n4ccc(N)nc4=O)O[C@@H]3COP(O)(=S)O[C@H]3[C@@H](O)[C@H](n4cnc5c(=O)[nH]c(N)nc54)O[C@@H]3COP(O)(=S)O[C@H]3[C@@H](O)[C@H](n4ccc(N)nc4=O)O[C@@H]3COP(O)(=S)O[C@H]3[C@@H](O)[C@H](n4ccc(N)nc4=O)O[C@@H]3COP(O)(=S)O[C@H]3[C@@H](O)[C@H](n4cnc5c(N)ncnc54)O[C@@H]3COP(O)(=S)O[C@H]3[C@@H](NCCCNCCCCNCCCNCCCN)[C@H](n4ccc(=O)[nH]c4=O)O[C@@H]3CO)O2)c(=O)[nH]c1=O` (some centres not stated), the results for the Tm in assay [1] and in assay [3] were 71.6 °C and 53.6 °C, respectively. For the same molecule, in assay [2], the Activity is 18.5%.
On to `Cc1cn([C@H]2C[C@H](OP(O)(=S)OC[C@H]3O[C@@H](n4cnc5c(N)ncnc54)[C@H](O)[C@@H]3OP(O)(=S)OC[C@H]3O[C@@H](n4ccc(N)nc4=O)[C@H](O)[C@@H]3OP(O)(=S)OC[C@H]3O[C@@H](n4ccc(N)nc4=O)[C@H](O)[C@@H]3OP(O)(=S)OC[C@H]3O[C@@H](n4cnc5c(=O)[nH]c(N)nc54)[C@H](O)[C@@H]3OP(O)(=S)OC[C@H]3O[C@@H](n4ccc(N)nc4=O)[C@H](O)[C@@H]3OP(O)(=S)OC[C@H]3O[C@@H](n4cnc5c(=O)[nH]c(N)nc54)[C@H](O)[C@@H]3OP(O)(=S)OC[C@H]3O[C@@H](n4cc(C)c(=O)[nH]c4=O)C[C@@H]3OP(O)(=S)OC[C@H]3O[C@@H](n4cnc5c(=O)[nH]c(N)nc54)[C@H](O)[C@@H]3OP(O)(=S)OC[C@H]3O[C@@H](n4ccc(N)nc4=O)[C@H](O)[C@@H]3OP(O)(=S)OC[C@H]3O[C@@H](n4cnc5c(=O)[nH]c(N)nc54)[C@H](O)[C@@H]3OP(O)(=S)OC[C@H]3O[C@@H](n4cnc5c(N)ncnc54)[C@H](O)[C@@H]3OP(O)(=S)OC[C@H]3O[C@@H](n4ccc(N)nc4=O)[C@H](O)[C@@H]3OP(O)(=S)OC[C@H]3O[C@@H](n4ccc(N)nc4=O)[C@H](O)[C@@H]3OP(O)(=S)OC[C@H]3O[C@@H](n4ccc(N)nc4=O)[C@H](O)[C@@H]3OP(O)(=S)OC[C@H]3O[C@@H](n4cc(C)c(=O)[nH]c4=O)C[C@@H]3OP(O)(=S)OC[C@H]3O[C@@H](n4ccc(N)nc4=O)[C@H](O)[C@@H]3OP(O)(=S)OC[C@H]3O[C@@H](n4ccc(=O)[nH]c4=O)[C@H](NCCCNCCCCNCCCN)[C@@H]3O)[C@@H](CO)O2)c(=O)[nH]c1=O` (some centres not stated), for which the results for the melting temperature (Tm) in assay [1] and in assay [3] were 74.3 °C and 53.2 °C, respectively.
With `Cc1cn([C@H]2C[C@H](OP(O)(=S)OC[C@H]3O[C@@H](n4ccc(N)nc4=O)[C@H](O)[C@@H]3OP(O)(=S)OC[C@H]3O[C@@H](n4cc(C)c(=O)[nH]c4=O)C[C@@H]3O)[C@@H](COP(O)(=S)O[C@H]3[C@@H](O)[C@H](n4ccc(N)nc4=O)O[C@@H]3COP(O)(=S)O[C@H]3[C@@H](O)[C@H](n4ccc(N)nc4=O)O[C@@H]3COP(O)(=S)O[C@H]3[C@@H](O)[C@H](n4ccc(N)nc4=O)O[C@@H]3COP(O)(=S)O[C@H]3[C@@H](O)[C@H](n4cnc5c(N)ncnc54)O[C@@H]3COP(O)(=S)O[C@H]3[C@@H](O)[C@H](n4cnc5c(=O)[nH]c(N)nc54)O[C@@H]3COP(O)(=S)O[C@H]3[C@@H](O)[C@H](n4ccc(N)nc4=O)O[C@@H]3COP(O)(=S)O[C@H]3[C@@H](O)[C@H](n4cnc5c(=O)[nH]c(N)nc54)O[C@@H]3COP(O)(=S)O[C@H]3C[C@H](n4cc(C)c(=O)[nH]c4=O)O[C@@H]3COP(O)(=S)O[C@H]3[C@@H](O)[C@H](n4cnc5c(=O)[nH]c(N)nc54)O[C@@H]3COP(O)(=S)O[C@H]3[C@@H](O)[C@H](n4ccc(N)nc4=O)O[C@@H]3COP(O)(=S)O[C@H]3[C@@H](O)[C@H](n4cnc5c(=O)[nH]c(N)nc54)O[C@@H]3COP(O)(=S)O[C@H]3[C@@H](O)[C@H](n4ccc(N)nc4=O)O[C@@H]3COP(O)(=S)O[C@H]3[C@@H](O)[C@H](n4ccc(N)nc4=O)O[C@@H]3COP(O)(=S)O[C@H]3[C@@H](O)[C@H](n4cnc5c(N)ncnc54)O[C@@H]3COP(O)(=S)O[C@H]3[C@@H](NCCCCN)[C@H](n4ccc(=O)[nH]c4=O)O[C@@H]3CO)O2)c(=O)[nH]c1=O` (some centres not stated), the results for the Tm in assay [1] and in assay [3] were 67.6 °C and 50.1 °C, respectively. The Activity in assay [2] stood at 70.6%.
For `Cc1cn([C@H]2C[C@H](OP(O)(=S)OC[C@H]3O[C@@H](n4cnc5c(N)ncnc54)[C@H](O)[C@@H]3OP(O)(=S)OC[C@H]3O[C@@H](n4ccc(N)nc4=O)[C@H](O)[C@@H]3OP(O)(=S)OC[C@H]3O[C@@H](n4ccc(N)nc4=O)[C@H](O)[C@@H]3OP(O)(=S)OC[C@H]3O[C@@H](n4cnc5c(=O)[nH]c(N)nc54)[C@H](O)[C@@H]3OP(O)(=S)OC[C@H]3O[C@@H](n4ccc(N)nc4=O)[C@H](O)[C@@H]3OP(O)(=S)OC[C@H]3O[C@@H](n4cnc5c(=O)[nH]c(N)nc54)[C@H](O)[C@@H]3OP(O)(=S)OC[C@H]3O[C@@H](n4cc(C)c(=O)[nH]c4=O)C[C@@H]3OP(O)(=S)OC[C@H]3O[C@@H](n4cnc5c(=O)[nH]c(N)nc54)[C@H](O)[C@@H]3OP(O)(=S)OC[C@H]3O[C@@H](n4ccc(N)nc4=O)[C@H](O)[C@@H]3OP(O)(=S)OC[C@H]3O[C@@H](n4cnc5c(=O)[nH]c(N)nc54)[C@H](O)[C@@H]3OP(O)(=S)OC[C@H]3O[C@@H](n4cnc5c(N)ncnc54)[C@H](O)[C@@H]3OP(O)(=S)OC[C@H]3O[C@@H](n4ccc(N)nc4=O)[C@H](O)[C@@H]3OP(O)(=S)OC[C@H]3O[C@@H](n4ccc(N)nc4=O)[C@H](O)[C@@H]3OP(O)(=S)OC[C@H]3O[C@@H](n4ccc(N)nc4=O)[C@H](O)[C@@H]3OP(O)(=S)OC[C@H]3O[C@@H](n4cc(C)c(=O)[nH]c4=O)C[C@@H]3OP(O)(=S)OC[C@H]3O[C@@H](n4ccc(N)nc4=O)[C@H](O)[C@@H]3OP(O)(=S)OC[C@H]3O[C@@H](n4cc(C)c(=O)[nH]c4=O)C[C@@H]3O)[C@@H](CO)O2)c(=O)[nH]c1=O` (some centres not stated), the Tm in assay [1] was 71.4 °C; in assay [3], 53.1 °C. Besides, the Activity in assay [2] was determined as 25%.

A word on the Tm: it is the temperature at which the thermal transition is half complete.
